Reference: patent publication US20260159474A1, “Aminoindane Compounds and Compositions and Methods of Their Therapeutic Use” (Solvonis Therapeutics Ireland Holdings Limited, priority 2021, published 2026)
pIC50: −log10 of the molar value. Like-named read-outs stand apart in the source and are kept apart here.

What was measured:
[1] = test system: 5-HT release in rat synaptosomes; assay: Serotonin release assay in rat cortex synaptosomes; format: biochemical; conditions: for 5-HT Release (pEC50): rat cortex synaptosomes, % of maximal release with 50 μM MDMA, n=2; for SERT/DAT Release Ratio: ratio of 5-HT and DA release potency, rat synaptosomes
Procedure: Methods-Evaluation of Monoamine Release: The potency of therapeutic compounds for stimulating DA release was measured by an endpoint release filtration assay in a 96-well format using rat synaptosomes, essentially as described by Sandtner et al. (Mol Pharmacol., 2016; 89(1):165-75.) and Baumann et al. (Neuropsychopharmacol, 2013; 38:552-562.) with some variations. One male rat was euthanized, and striatum/cortex regions were dissected over ice. The striatum portions were weighed and put in a glass tube containing ice-cold 0.32 M sucrose (dilution 1:24 w/v) for homogenization, while the frontal cortex tissue was diluted in ice-cold 0.32 M sucrose, 1:20 w/v. Tissues were homogenized and centrifuged for 10 mins at 1000×g. The two supernatants from striatum and cortex (crude synaptosomes) were retained on ice until use.
Test compounds were then serially diluted 1:4 in neat DMSO as concentration-response curves (CRC) of 11 points. To each well of a 2-mL 96 deep-well plate (Whatman UNIPLATE 96 well) were added: 2 μL of a concentration-response curve (CRC) of test compounds or 2 μL of DMSO (no-release condition) or 2 μL of MDMA 10 mM solution (final 50 μM, for maximal release), followed by 200 μL/well of complete Krebs-phosphate buffer (126 mM NaCl, 2.4 mM KCl, 0.83 mM CaCl2), 0.8 mM MgCl2, 0.5 mM KH2PO4, 0.5 mM Na2SO4, 11.1 mM glucose, 0.05 mM pargyline, 1 mg/mL ascorbic acid, freshly added, pH 7.4), containing 1 μM reserpine to block vesicular uptake of substrate. Desipramine (100 nM) and citalopram (100 nM) were also added to the release assay buffer in order to inhibit NET and SERT uptake, respectively. The final compound dilution, then, was 1:200 in 0.5% DMSO.
The raw data (cpm) from residual radioactivity onto the filter were elaborated for the determination of pEC50/EC50 values. Specifically, the compound effect was expressed as the percent of maximal release obtained with 50 μM MDMA (100% release) in comparison to vehicle (0.5% DMSO, 0% release). Both MDMA and D-amphetamine in CRC were used as internal controls in each release experiment. In each plate, for both 0% and 100% of release, the signal window was monitored and Z′ calculations were determined using the raw data of four replicates. 5-HT release was calculated in an identical fashion, except that 5 nM 3H-serotonin was added to crude cortex synaptosomes preparation diluted 1:13 (v/v) in complete Krebs-phosphate buffer containing 1 μM Reserpine, 100 nM GBR12909 and 100 nM nomifensine to block vesicular, DAT, and NET uptake, respectively. Synaptosomes were then loaded with 3H-5HT for 60 minutes at RT. After dispensing loaded synaptosomes onto a compound plate (200 μL/well), the release reaction proceeded for an additional 15 minutes. Stop by filtration, counting, and data elaboration were performed as described for DA release. Compounds were tested in duplicate (n=2).

[2] = biological target: T1, CYP3A4 (Homo sapiens, UniProt P08684); assay: CYP450 inhibition, fluorescent probe substrate; format: in vitro ADME
T1 construct: purchased Life Technologies P2377; host or cells: Baculosomes
T1 sequence (P08684 whole entry): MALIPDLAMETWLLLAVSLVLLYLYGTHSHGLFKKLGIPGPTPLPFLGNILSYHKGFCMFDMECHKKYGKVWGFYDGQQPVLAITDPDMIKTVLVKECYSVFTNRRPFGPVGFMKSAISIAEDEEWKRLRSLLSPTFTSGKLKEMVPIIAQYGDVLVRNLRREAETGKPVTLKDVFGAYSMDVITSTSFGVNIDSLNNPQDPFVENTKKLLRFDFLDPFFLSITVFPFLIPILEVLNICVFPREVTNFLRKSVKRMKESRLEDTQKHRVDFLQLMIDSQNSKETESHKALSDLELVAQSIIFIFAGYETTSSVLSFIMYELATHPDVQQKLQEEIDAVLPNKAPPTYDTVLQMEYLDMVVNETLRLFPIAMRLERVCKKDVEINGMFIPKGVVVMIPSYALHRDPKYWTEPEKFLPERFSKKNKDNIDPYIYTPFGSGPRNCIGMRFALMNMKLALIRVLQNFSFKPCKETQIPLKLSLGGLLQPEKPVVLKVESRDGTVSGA
Procedure: Methods: Recombinant human CYP450 isoenzymes were used to metabolize pro-fluorescent probe substrates to fluorescent products. IC50 values determined from the effect of test compounds on the metabolism of these probe substrates were then used to determine inhibitory potency against CYP450 isoforms. The chemical reagents included:
The test system was based on a three-step procedure with a “mix and read” format, where reaction and reading were performed at 37° C. The assays described herein measure in vitro inhibitory effects (pIC50) of compounds on the human P450 isoforms (1A2, 2B6, 2C8, 2C9, 2C19, 2D6, 3A4) expressed in recombinant microsomes. Pro-fluorescent probe substrates were metabolized to fluorescent products by the enzymes. Fluorescence was measured in kinetic mode (1 read/minutes for 10 minutes), and the fluorescence rate was calculated.
Inhibition of the fluorescent signal resulting from P450 activation indicated inhibitory activity and facilitated calculation of the compound pIC50. A quality check was included in each compound plate, wherein the signal window was monitored by performing Z′ calculations ([…] ) and the antagonist potency of internal standards was within the pIC50±2SD range. Concentration response curves (CRCs) of compounds were run on two different test occasions (n 2) by preparing serial dilutions from the same compound stock solution.
To prepare the compound plate, test compounds serial dilutions 1 to 3 were performed from a 10 mM stock solution in DMSO by Biomek FX to generate 10 point CRC with the highest concentrations in columns 3 and 13.
100% DMSO was placed in columns 1 and 2 and used for assay low controls. CYP inhibitor (10 mM miconazole solution in DMSO) was placed in columns 23 and 24 and served as an assay high controls. 1 μL copy plates were then stamped into V-bottom drug plates at a concentration that is 200 fold the final assay concentration. The copy plates were diluted prior to the experiment with assay buffer to reach 4 times the final assay concentration (2% w/v DMSO).
A reference compound (e.g., miconazole) was included in each compound plate in row A, column 3 and 13. The reference compound was diluted and stamped together with test compounds. The final concentrations of the 10 point CRCs of test compounds in the assay plate were 5.00E-05; 1.67E-05; 5.56E-06; 1.85E-06; 6.17E-07; 2.06E-07; 6.86E-08; 2.29E-08; 7.62E-09 and 2.54E-09, respectively. All solutions were prepared immediately before the assay.
Microsomes were added to the buffer prior to the substrate addition. The solution was carefully mixed without vortexing. 30 μL/well of the mixture was then transferred to the assay plate (384-well black plate) using a 16-channel pipette. For each P450 isoformn, a separate plate was prepared and labeled with a barcode. For fluorescence measurement, 10 μL/well of the test compounds were transferred from the compound plate to the assay plate using Biomek FX and the appropriate protocol. The assay plate was then incubated at 37° C. for 10 minutes on a shaker to allow for the interaction between compounds and enzymes.
10 μL/well of the cofactor was then added to the assay plate using the Multidrop before placing the assay plate in the plate reader EnVision to measure fluorescence. The overall final DMSO concentration for the assay was 0.5%. Plates were read every minute for 10 minutes, according to a P450 isoform specific protocol, as shown below.
The CYP3A4 and CYP2C8 were assayed using the Vivid CYP3A4 Baculosomes, CYP2C8 Baculosomes and Vivid DBOMF Substrate (Life Technologies, cat. P2377, PV6138 and P2974 respectively), while 2B6 is tested by Vivid CYP2B6 Baculosomes and Vivid BOMCC Substrate (Life Technologies, cat. P3028 and P2975). Test compounds were prepared as specified above. […]

[3] = recombinant human isoenzyme, n=2, read-out: Inhibition of CYP3A4, IC50

In the case of COC(=O)c1cc2c(cc1OC)CC(N)C2 (stereo not drawn) [CMP-401], the “5-HT Release (pEC50)” value [1] was 5.5, the “SERT/DAT Release Ratio” value [1] was >35 and the pIC50 [2, 3] was < 4.30.

With COC(=O)COc1ccc2c(c1)CC(N)C2 (stereo not drawn) [CMP-402] the “5-HT Release (pEC50)” value [1] was 5.0, the “SERT/DAT Release Ratio” value [1] was >10 and the pIC50 [2, 3] was < 4.30.

COC(=O)c1ccc2c(c1)CC(N)C2 (stereo not drawn) [CMP-405, 2-aminoindane-5-methylcarboxylate] was tested, and the “5-HT Release (pEC50)” value [1] was 6.1, the “SERT/DAT Release Ratio” value [1] was 3.2 and the pIC50 [2, 3] was < 4.30.

CNC(C)Cc1ccc2c(c1)OCO2 (stereo not drawn) [MDMA] was tested, and the “5-HT Release (pEC50)” value [1] was 7.0, the “SERT/DAT Release Ratio” value [1] was 2.6 and the pIC50 [2, 3] was < 4.30.

In the case of COc1ccc2c(c1)CC(N)C2 (stereo not drawn) [MEAI, 5-methoxy-2-aminoindane], the “5-HT Release (pEC50)” value [1] was 6.8, the “SERT/DAT Release Ratio” value [1] was 28 and the pIC50 [2] was < 4.30.

COc1cc2c(cc1C)CC(N)C2 (stereo not drawn) [MMAI, 5-methoxy-6-methyl-2-aminoindane] was tested, and the “5-HT Release (pEC50)” value [1] was 7.4, the “SERT/DAT Release Ratio” value [1] was 575 and the pIC50 [2] was < 4.30.
